Converted amounts (≈) assume the structure as drawn.
What was measured:
[1] = tested on: Enterococcus faecium isolates (n = 104); experiment: Broth microdilution MIC, clinical isolate panel; type: cell-based; settings: Enterococcus faecium (n = 104)
Experimental: (§1) Comparator antibiotics were supplied by Micromyx, and stock solutions were prepared on the first day of testing using solvents recommended by CLSI (1). Stock solutions of all compounds were made at 40× the final testing concentration and stored at −80° C. prior to testing. Information regarding compound source, catalog and lot number, testing concentrations and drug diluent for the comparators and test agent are detailed below in Table 3.
(§2) The test organisms evaluated in this study consisted of clinical isolates from the Micromyx Repository and reference isolates from the American Type Culture Collection (ATCC; Manassas, Va.). The clinical isolates were obtained from USA hospitals. Upon initial receipt at Micromyx, the organisms were sub-cultured onto an appropriate agar medium. Following incubation, colonies were harvested from these plates and cell suspensions prepared and frozen at −80° C. with a cryoprotectant. Prior to testing, the isolates were streaked from frozen vials onto Trypticase Soy Agar with 5% sheep blood (Becton Dickenson [BD]; Sparks, Md.; Lot Nos. 7173618, 7166759, 7208688, 72144895, 7228505 and Remel Lenexa, Kans. Lot No. 212574). Plates were incubated at 35° C. overnight.
(§3) Mueller Hinton II broth (MHB II; BD; Lot Nos. 6258541 and 7143896) was used for MIC testing of aerobic organisms.
(§4) MIC values were determined using a broth microdilution procedure described by CLSI (1, 3). Automated liquid handlers (Multidrop 384, Labsystems, Helsinki, Finland; Biomek 2000 and Biomek FX, Beckman Coulter, Fullerton Calif.) were used to conduct serial dilutions and liquid transfers.
(§5) To prepare the drug mother plates, which would provide the serial drug dilutions for the replicate daughter plates, the wells of columns 2-12 of standard 96-well microdilution plates (Costar 3795) were filled with 150 μl of the designated diluent for each row of drug. The test articles and comparator compounds (300 μl at 40× the highest concentration to be tested) were dispensed into the appropriate wells in column 1. The Biomek 2000 was then used to make 2-fold serial dilutions in the mother plates from column 1 through column 11. The wells of Column 12 contained no drug and served as the organism growth control wells for the assay.
(§6) The daughter plates were loaded with 185 μL per well of MHB II using the Multidrop 384. The daughter plates were completed on the Biomek FX instrument which transferred 5 µL of drug solution from each well of a mother plate to the corresponding well of each daughter plate in a single step. A standardized inoculum of each test organism was prepared per CLSI methods (1). The inoculum for each organism was dispensed into sterile reservoirs divided by length (Beckman Coulter), and the Biomek 2000 was used to inoculate the plates. Daughter plates were placed on the Biomek 2000 work surface in reverse orientation so that inoculation took place from low to high drug concentration.
(§7) Plates were stacked 3-4 high, covered with a lid on the top plate, placed in plastic bags, and incubated at 35° C. for 16 to 20 hrs. Following incubation, the microplates were removed from the incubator and viewed from the bottom using a plate viewer. […] The MIC was read and recorded as the lowest concentration of drug that inhibited visible growth of the organism.
(§8) Clinical breakpoints to determine percent resistance within a given organism group were obtained from CLSI (3), with the exception of colistin for K. pneumoniae, Enterobacter spp., and E. coli, which are only available from EUCAST.

[2] = tested on: Staphylococcus aureus isolates (n = 104); experiment: Broth microdilution MIC, clinical isolate panel; type: cell-based
Experimental: as §1, §2, §3, §4, §5, §6, §7, §8

[3] = tested on: Acinetobacter baumannii ATCC 19606 (non-MDR); experiment: Broth microdilution MIC (Table 2); type: cell-based
Experimental: (§9) Each peptide was formulated in PBS buffer prior to testing. Peptides of SEQ ID NO:5 and SEQ ID NO:8 were brought up in 100% DMSO with 0.002% polysorbate-80 at 1.28 mg/mL (40× the highest final test concentration of 32 mcg/mL). Final test concentration of DMSO was 2.5% in the assay at the first dilution for those two compounds.
(§10) Mueller Hinton II broth (MHB II; BD; Lot Nos. 6258541 and 7143896) was used for MIC testing of aerobic organisms. 0.002% polysorbate 80 (P80) was added to the test medium.
as §4
as §5, with “serial peptide” for “serial drug”, “of peptide.” for “of drug.”
as §6, with “5 uL” for “5 µL”, “of peptide” for “of drug”, “CLSI methods.” for “CLSI methods (1).”, “concentration. The plates were then inoculated with 10 μL of the inoculum resulting in a final cell density of approximately 5×10^5 CFU/mL, per well.” for “concentration.”
as §7, with “peptide” for “drug”

[4] = tested on: Acinetobacter baumannii ATCC BAA-1797 (MDR); experiment: Broth microdilution MIC (Table 2); type: cell-based
Experimental: as §9, §10, §4
as §5, with “serial peptide” for “serial drug”, “of peptide.” for “of drug.”
as §6, with “5 uL” for “5 µL”, “of peptide” for “of drug”, “CLSI methods.” for “CLSI methods (1).”, “concentration. The plates were then inoculated with 10 μL of the inoculum resulting in a final cell density of approximately 5×10^5 CFU/mL, per well.” for “concentration.”
as §7, with “peptide” for “drug”

[5] = tested on: Enterococcus faecalis ATCC 29212 (VSE; QC); experiment: Broth microdilution MIC (Table 2); type: cell-based
Experimental: as §9, §10, §4
as §5, with “serial peptide” for “serial drug”, “of peptide.” for “of drug.”
as §6, with “5 uL” for “5 µL”, “of peptide” for “of drug”, “CLSI methods.” for “CLSI methods (1).”, “concentration. The plates were then inoculated with 10 μL of the inoculum resulting in a final cell density of approximately 5×10^5 CFU/mL, per well.” for “concentration.”
as §7, with “peptide” for “drug”

[6] = tested on: Enterococcus faecalis ATCC 700802 (V583 VRE); experiment: Broth microdilution MIC (Table 2); type: cell-based
Experimental: as §9, §10, §4
as §5, with “serial peptide” for “serial drug”, “of peptide.” for “of drug.”
as §6, with “5 uL” for “5 µL”, “of peptide” for “of drug”, “CLSI methods.” for “CLSI methods (1).”, “concentration. The plates were then inoculated with 10 μL of the inoculum resulting in a final cell density of approximately 5×10^5 CFU/mL, per well.” for “concentration.”
as §7, with “peptide” for “drug”

[7] = tested on: Enterococcus faecium ATCC 51559 (VRE); experiment: Broth microdilution MIC (Table 2); type: cell-based
Experimental: as §9, §10, §4
as §5, with “serial peptide” for “serial drug”, “of peptide.” for “of drug.”
as §6, with “5 uL” for “5 µL”, “of peptide” for “of drug”, “CLSI methods.” for “CLSI methods (1).”, “concentration. The plates were then inoculated with 10 μL of the inoculum resulting in a final cell density of approximately 5×10^5 CFU/mL, per well.” for “concentration.”
as §7, with “peptide” for “drug”

[8] = tested on: Pseudomonas aeruginosa ATCC 27853 (non-MDR; QC); experiment: Broth microdilution MIC (Table 2); type: cell-based
Experimental: as §9, §10, §4
as §5, with “serial peptide” for “serial drug”, “of peptide.” for “of drug.”
as §6, with “5 uL” for “5 µL”, “of peptide” for “of drug”, “CLSI methods.” for “CLSI methods (1).”, “concentration. The plates were then inoculated with 10 μL of the inoculum resulting in a final cell density of approximately 5×10^5 CFU/mL, per well.” for “concentration.”
as §7, with “peptide” for “drug”

[9] = tested on: Staphylococcus aureus ATCC 29213 (MSSA; QC); experiment: Broth microdilution MIC (Table 2); type: cell-based
Experimental: as §9, §10, §4
as §5, with “serial peptide” for “serial drug”, “of peptide.” for “of drug.”
as §6, with “5 uL” for “5 µL”, “of peptide” for “of drug”, “CLSI methods.” for “CLSI methods (1).”, “concentration. The plates were then inoculated with 10 μL of the inoculum resulting in a final cell density of approximately 5×10^5 CFU/mL, per well.” for “concentration.”
as §7, with “peptide” for “drug”

[10] = tested on: Staphylococcus aureus ATCC 43300 (MRSA); experiment: Broth microdilution MIC (Table 2); type: cell-based
Experimental: as §9, §10, §4
as §5, with “serial peptide” for “serial drug”, “of peptide.” for “of drug.”
as §6, with “5 uL” for “5 µL”, “of peptide” for “of drug”, “CLSI methods.” for “CLSI methods (1).”, “concentration. The plates were then inoculated with 10 μL of the inoculum resulting in a final cell density of approximately 5×10^5 CFU/mL, per well.” for “concentration.”
as §7, with “peptide” for “drug”

[11] = tested on: Staphylococcus aureus NRS382 (USA100; HA-MRSA); experiment: Broth microdilution MIC (Table 2); type: cell-based
Experimental: as §9, §10, §4
as §5, with “serial peptide” for “serial drug”, “of peptide.” for “of drug.”
as §6, with “5 uL” for “5 µL”, “of peptide” for “of drug”, “CLSI methods.” for “CLSI methods (1).”, “concentration. The plates were then inoculated with 10 μL of the inoculum resulting in a final cell density of approximately 5×10^5 CFU/mL, per well.” for “concentration.”
as §7, with “peptide” for “drug”

[12] = tested on: Streptococcus agalactiae ATCC 13813; experiment: Broth microdilution MIC (Table 2); type: cell-based; settings: ATCC13813
Experimental: as §9, §10, §4
as §5, with “serial peptide” for “serial drug”, “of peptide.” for “of drug.”
as §6, with “5 uL” for “5 µL”, “of peptide” for “of drug”, “CLSI methods.” for “CLSI methods (1).”, “concentration. The plates were then inoculated with 10 μL of the inoculum resulting in a final cell density of approximately 5×10^5 CFU/mL, per well.” for “concentration.”
as §7, with “peptide” for “drug”

[13] = tested on: Streptococcus pneumoniae ATCC 49619 (QC); experiment: Broth microdilution MIC (Table 2); type: cell-based
Experimental: as §9, §10, §4
as §5, with “serial peptide” for “serial drug”, “of peptide.” for “of drug.”
as §6, with “5 uL” for “5 µL”, “of peptide” for “of drug”, “CLSI methods.” for “CLSI methods (1).”, “concentration. The plates were then inoculated with 10 μL of the inoculum resulting in a final cell density of approximately 5×10^5 CFU/mL, per well.” for “concentration.”
as §7, with “peptide” for “drug”

[14] = tested on: Streptococcus pyogenes ATCC 49399; experiment: Broth microdilution MIC (Table 2); type: cell-based
Experimental: as §9, §10, §4
as §5, with “serial peptide” for “serial drug”, “of peptide.” for “of drug.”
as §6, with “5 uL” for “5 µL”, “of peptide” for “of drug”, “CLSI methods.” for “CLSI methods (1).”, “concentration. The plates were then inoculated with 10 μL of the inoculum resulting in a final cell density of approximately 5×10^5 CFU/mL, per well.” for “concentration.”
as §7, with “peptide” for “drug”

[15] = tested on: Acinetobacter spp. isolates (n = 104); experiment: Broth microdilution MIC, clinical isolate panel; type: cell-based; settings: Acinetobacter spp. (n = 104)
Experimental: as §1, §2, §3, §4, §5, §6, §7, §8

[16] = tested on: Escherichia coli isolates (n = 101); experiment: Broth microdilution MIC, clinical isolate panel; type: cell-based; settings: Escherichia coli (n = 101)
Experimental: as §1, §2, §3, §4, §5, §6, §7, §8

[17] = tested on: Klebsiella pneumoniae isolates (n = 101); experiment: Broth microdilution MIC, clinical isolate panel; type: cell-based; settings: Klebsiella pneumoniae (n = 101)
Experimental: as §1, §2, §3, §4, §5, §6, §7, §8

[18] = tested on: Pseudomonas aeruginosa isolates (n = 109); experiment: Broth microdilution MIC, clinical isolate panel; type: cell-based; settings: Pseudomonas aeruginosa (n = 109)
Experimental: as §1, §2, §3, §4, §5, §6, §7, §8

[19] = tested on: Enterobacter spp. isolates (n = 102); experiment: Broth microdilution MIC, clinical isolate panel; type: cell-based, Enterobacter aerogenes and E. cloacae; settings: Enterobacter spp. (n = 102)
Experimental: as §1, §2, §3, §4, §5
The daughter plates were loaded with 185 μL per well of MHB II using the Multidrop 384. The daughter plates were completed on the Biomek FX instrument which transferred 5 µL of drug solution from each well of a mother plate to the corresponding well of each daughter plate in a single step. […]
Plates were stacked 3-4 high, covered with a lid on the top plate, placed in plastic bags, and incubated at 35° C. for 16 to 20 hrs. […] The MIC was read and recorded as the lowest concentration of drug that inhibited visible growth of the organism. […]

| Compound | % R (percent of isolates resistant, clinical breakpoints) [1] [%] | % R (percent of isolates resistant, clinical breakpoints) ([2]; Staphylococcus aureus (n = 104), all methicillin-resistant) [%] | MIC ([2]; Staphylococcus aureus, read-out: Mode (MIC)) [µg/mL] | MIC [3] [µg/mL] | MIC [4] [µg/mL] | MIC [5] [µg/mL] | MIC [6] [µg/mL] | MIC [7] [µg/mL] | MIC [8] [µg/mL] | MIC [9] [µg/mL] | MIC [10] [µg/mL] | MIC [11] [µg/mL] | MIC [12] [µg/mL] | MIC [13] [µg/mL] | MIC [14] [µg/mL] | % R (percent of isolates resistant, clinical breakpoints) [15] [%] | % R (percent of isolates resistant, clinical breakpoints) [16] [%] | % R (percent of isolates resistant, clinical breakpoints) [17] [%] | % R (percent of isolates resistant, clinical breakpoints) [18] [%] | % R (percent of isolates resistant, clinical breakpoints) [19] [%] |
| --- | --- | --- | --- | --- | --- | --- | --- | --- | --- | --- | --- | --- | --- | --- | --- | --- | --- | --- | --- | --- |
| CN[C@H](CC(C)C)C(=O)N[C@H]1C(=O)N[C@@H](CC(N)=O)C(=O)N[C@H]2C(=O)N[C@H]3C(=O)N[C@H](C(=O)N[C@H](C(=O)O)c4cc(O)cc(O)c4-c4cc3ccc4O)[C@H](O)c3ccc(c(Cl)c3)Oc3cc2cc(c3O[C@@H]2O[C@H](CO)[C@@H](O)[C@H](O)[C@H]2O[C@H]2C[C@](C)(N)[C@H](O)[C@H](C)O2)Oc2ccc(cc2Cl)[C@H]1O [Vancomycin] | 47.1 | 0 | 1 (≈ 0.69 µM) |  |  |  |  |  |  |  |  |  |  |  |  |  |  |  |  |  |
| Colistin |  |  |  | 0.25 | 0.25 | >32 | >32 | >32 | 0.25 | >32 | >32 | >32 | >32 | >32 | >32 | 20.2 | 0 | 27.7 | 7.3 | 5.8 |

Source: patent US20200071361A1, “ENGINEERED ANTIMICROBIAL AMPHIPHILIC PEPTIDES AND METHODS OF USE” (priority 2017, published 2020)
